The numbers were not newly measured in patent US20260216081A1, “METFORMIN HYDROCHLORIDE ENTERIC-COATED PREPARATION” (YAYAN (TIANJIN) BIOMEDICAL TECHNOLOGY CENTER (LIMITED …, priority 2023, published 2026), which cites them from elsewhere.

The conditions of the series: background statement.

`CN(C)C(=N)N=C(N)N` [metformin]: the “Incidence of gastrointestinal adverse reactions” value is given as 20-30%.
